Measured values as given in ChEMBL document CHEMBL1201862, “PubChem BioAssay data set” (2004).
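Each compound was tested at five concentrations against cells in 96-well plates for 48 hours. GI50 marks 50% less growth.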 Active and inactive are the calls of the source. Rule as the data show it: active = GI50 up to about 1.1 µM and inactive = higher.

Experiments:
Test in all cases: growth of human tumour cells (NCI), 48 h
A498 = test system: A498
Hs-578T = test system: Hs-578T
SF-295 = test system: SF-295
MDA-N = test system: MDA-N
BT-549 = test system: BT-549
HOP-92 = test system: HOP-92
NCI-H23 = test system: NCI-H23
KM12 = test system: KM12
SN12C = test system: SN12C
OVCAR-4 = test system: OVCAR-4
SK-MEL-5 = test system: SK-MEL-5
HCT-116 = test system: HCT-116
NCI/ADR-RES = test system: NCI/ADR-RES
COLO 205 = test system: COLO 205
ACHN = test system: ACHN
MCF7 = test system: MCF7
EKVX = test system: EKVX
T47D = test system: T47D
MDA-MB-435 = test system: MDA-MB-435
SK-MEL-2 = test system: SK-MEL-2

Measured: GI50

COc1cc2c(OC)c(c1)CCCC1=CC(=O)C=C(CCC2)C1=O
inactive: A498 > 100 µM | Hs-578T 30.9 µM | SF-295 50.2 µM | MDA-N 15.2 µM | BT-549 33.3 µM | HOP-92 5.6 µM | NCI-H23 50.2 µM | KM12 21.9 µM | SN12C 20.8 µM | OVCAR-4 17.2 µM | SK-MEL-5 30.3 µM | HCT-116 17.1 µM | NCI/ADR-RES 32 µM | COLO 205 21.9 µM | ACHN 47.5 µM | MCF7 39 µM | EKVX 41.1 µM | T47D 23.2 µM | MDA-MB-435 23.8 µM

COc1cc(OCc2ccc3nc(OC)c(OC)nc3c2)cc(OC)c1OC
inactive: A498 > 10 µM | Hs-578T > 10 µM | SF-295 > 10 µM | MDA-N > 10 µM | BT-549 > 3.72 µM | HOP-92 7.18 µM | NCI-H23 > 10 µM | KM12 > 10 µM | SN12C > 10 µM | OVCAR-4 > 8 µM | SK-MEL-5 > 10 µM | HCT-116 > 10 µM | NCI/ADR-RES > 10 µM | COLO 205 > 10 µM | ACHN > 10 µM | MCF7 > 10 µM | EKVX > 10 µM | T47D > 10 µM | MDA-MB-435 > 10 µM

CCOC(=O)NC(Nc1cccc(F)c1)(C(F)(F)F)C(F)(F)F
inactive: A498 > 100 µM | Hs-578T > 100 µM | SF-295 > 100 µM | MDA-N > 100 µM | BT-549 > 100 µM | HOP-92 > 100 µM | NCI-H23 > 100 µM | KM12 > 100 µM | SN12C > 100 µM | SK-MEL-2 > 100 µM | SK-MEL-5 > 100 µM | HCT-116 > 100 µM | NCI/ADR-RES > 100 µM | COLO 205 > 100 µM | ACHN > 100 µM | MCF7 > 100 µM | EKVX > 100 µM | T47D > 100 µM | MDA-MB-435 > 100 µM

COc1cc(CNc2nc3ccccc3nc2C(=O)O)cc(OC)c1OC
inactive: A498 > 100 µM | Hs-578T 42.1 µM | SF-295 > 100 µM | MDA-N > 100 µM | BT-549 > 100 µM | HOP-92 65 µM | NCI-H23 > 100 µM | KM12 > 100 µM | SN12C 83 µM | OVCAR-4 > 100 µM | SK-MEL-5 98.4 µM | HCT-116 > 100 µM | NCI/ADR-RES > 100 µM | COLO 205 > 100 µM | ACHN > 100 µM | MCF7 81.1 µM | EKVX 64.1 µM | T47D > 100 µM | MDA-MB-435 > 100 µM
